In patent publication US11254700B2, “GSK-3β inhibitors and use thereof in methods of treatment” (UNIVERSITY OF HAWAII, priority 2017, dated 2022):
Where “and” joins values, the source holds several entries; their conditions need not be identical. Identical values can stand only once. Entries after “also recorded” stand apart in the source; their conditions may differ. Like-named read-outs stand apart in the source and are kept apart here.

Columns and labels:
[1] = PAMPA passive membrane permeability; settings: for R (percent recovery) / Pe: 20 μM, pH 7.4, 5 hours; for Pe: room temperature, mean ±SD; for permeability compared to isoorientin 1: 5-hour incubation; for Permeability classification: PAMPA
Experimental: Samples were run in quadruplicate.
Oral administration is noninvasive and is preferred for chronical diseases such as Alzheimer's disease and other CNS disorders. […] In the PAMPA model, the amount of target compounds diffused from a donor compartment to an acceptor compartment through a tri-layer phospholipid pre-coated membrane are measured to assess oral-absorption potential of drug candidates. In the present study, 1, 4, 9, 17, 21 and 30 were evaluated with the PAMPA assay.

[2] = system: GSK-3β-mediated tau phosphorylation (pS396) in SH-SY5Y lysate; assay: Whole-cell lysate GSK-3β assay with human Tau pS396 ELISA; assay type: biochemical; settings: for GSK-3β-mediated tau hyperphosphorylation at pS396: 2, 10 and 50 μM, 2 hours, 37° C., lysate with 0.25% GSK-3β
Experimental: Whole-Cell Lysate GSK-3β Assay.
The assay procedure was followed as described (Liang, et al. (2016) ACS Chem. Neurosci. 7:912-923). SH-SY5Y cells were washed with phosphate-buffered saline (PBS) and lysed with cell extraction buffer containing 10 mM Tris, pH 7.4, 100 mM NaCl, 1 mM EDTA, 1 mM EGTA, 1 mM NaF, 20 mM Na4P2O7, 2 mM Na3VO4, 1% Triton X-100, 10% glycerol, 0.1% sodium dodecyl sulfate (SDS), 0.5% sodium deoxycholate, 1 mM phenylmethanesulfonyl fluoride (PMSF) and a protease inhibitor cocktail. Lysate was diluted with kinase buffer (40 mM Tris, pH 7.5, 20 mM MgCl2, 50 μM DTT, 400 μM ATP) to afford a concentration of 5 μg/μL of total protein, and split into aliquots. Recombinant human GSK-3β was fortified into lysate aliquots to a final concentration of 0.25% (wt/wt) of total protein. A lysate aliquot fortified with heat-inactivated GSK-3β was used as a negative control. The fortified lysate aliquots were incubated with test sample or 5% DMSO vehicle at 37° C. for 2 hours followed by ELISA analysis.
The quantitative determination of phosphorylated human tau at GSK-3β specific pS396 site was conducted by taking 50 μL diluted cell lysate and using a specific antibody against human tau [pS396] in a sandwich ELISA according to the manufacturer's protocol. Tau phosphorylation was quantified by measuring the absorbance at 450 nm in a microtiter plate reader. The analysis was collected in quadruplicate of two independent experiments.

GSK-3β [3] = target: T1, GSK-3β (Homo sapiens, UniProt P49841); assay: Kinase luminescent assay (ADP-Glo), GSK-3β inhibition; assay type: biochemical; settings: for IC50: 25 μM ATP, 1 hour, room temperature, mean of quadruplicate of two experiments, read-out: IC50 against GSK-3β
Experimental: Kinase Luminescent Assay.
Kinase inhibition was assessed with the ADP-Glo Kinase Assay. […] The reaction mixture was incubated for 1 hour at room temperature followed by the addition of the ADP-Glo′ reagents according to the manufacturer's protocol. The kinase inhibitor staurosporine was used at 1 μM as a reference control. Each data point was collected in quadruplicate of two independent experiments.
Target sequence in this assay (P49841 whole entry): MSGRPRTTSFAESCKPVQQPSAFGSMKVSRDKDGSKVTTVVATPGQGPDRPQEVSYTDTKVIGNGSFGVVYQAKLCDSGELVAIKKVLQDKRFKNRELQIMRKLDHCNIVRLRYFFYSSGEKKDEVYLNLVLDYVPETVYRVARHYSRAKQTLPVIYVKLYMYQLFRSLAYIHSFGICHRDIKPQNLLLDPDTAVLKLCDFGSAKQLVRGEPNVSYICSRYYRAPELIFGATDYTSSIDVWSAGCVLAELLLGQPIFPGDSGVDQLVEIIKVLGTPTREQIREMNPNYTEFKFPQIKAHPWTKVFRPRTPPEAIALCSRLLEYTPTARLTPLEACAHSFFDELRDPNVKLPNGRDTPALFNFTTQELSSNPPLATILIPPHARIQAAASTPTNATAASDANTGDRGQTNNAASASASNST

SH-SY5Y cells = assay: Cytotoxicity in SH-SY5Y cells; assay type: cell-based, human; settings: 1000 μM
Experimental: (§1) Human neuroblastoma SH-SY5Y cell line (Sigma-Aldrich, Saint Louis, Mo.) was cultured in DMEM/F12 (v/v 1:1) media supplemented with 2 mM glutamine, 10% heat-inactivated fetal bovine serum (FBS) and 1% antibiotics including penicillin and streptomycin. After reaching 70-80% confluence, cells were then subcultured on poly-L-lysine plates with 10 μM retinoic acid in a reduced serum media (1% FBS) to promote neuronal maturation and differentiation as described (Agholme, et al. (2010) J. Alzheimer's Dis. 20: 1069-1082). Cell cultures were incubated at 37° C. in a fully humidified atmosphere containing 5% CO2.
(§2) SH-SY5Y cells were seeded at a density of 3×10^5 cells/mL in a 96-well plate in DMEM/F12 media containing 10 μM retinoic acid and 1% FBS to suppress cell proliferation. Cells were incubated under regular culture conditions for attachment. After 24 hours of plating, the cells were pretreated with different concentrations of test samples or the 0.2% DMSO as a vehicle control for 1 hour and then co-incubated with 10 μM Aβ42 for 72 hours. After the experimental treatment, the cells were subject to a […]® 96 AQueous One Solution Cell Proliferation […] Assay according to the manufacturer's instruction. […] Each data point was collected in triplicate of two independent experiments.

GSK-3α = GSK-3α (Homo sapiens, UniProt P49840); assay: Kinase selectivity profile, GSK-3α; assay type: biochemical
GSK-3α, sequence (P49840 whole entry): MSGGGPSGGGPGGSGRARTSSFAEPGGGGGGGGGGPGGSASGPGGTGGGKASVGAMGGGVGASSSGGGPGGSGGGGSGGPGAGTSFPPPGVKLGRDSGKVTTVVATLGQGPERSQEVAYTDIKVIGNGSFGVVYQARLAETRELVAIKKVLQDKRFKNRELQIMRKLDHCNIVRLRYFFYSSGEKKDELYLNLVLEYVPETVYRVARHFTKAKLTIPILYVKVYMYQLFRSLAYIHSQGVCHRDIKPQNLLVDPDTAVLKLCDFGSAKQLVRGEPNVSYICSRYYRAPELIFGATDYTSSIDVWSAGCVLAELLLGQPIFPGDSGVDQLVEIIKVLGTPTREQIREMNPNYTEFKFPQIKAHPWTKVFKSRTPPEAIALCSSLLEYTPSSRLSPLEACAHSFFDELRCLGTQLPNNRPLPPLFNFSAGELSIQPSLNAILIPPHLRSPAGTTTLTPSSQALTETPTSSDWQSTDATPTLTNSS
Experimental: (§3) Kinase inhibition was assessed with the ADP-Glo Kinase Assay. For screening, 5 ng/μL of kinase was assayed in a reaction containing 50 ng/μL substrate, 40 mM Tris, pH 7.5, 20 mM MgCl2, 0.1 mg/mL bovine serum albumin, 50 μM dithiothreitol (DTT), 25 μM ATP, varying concentrations of test samples or 5% DMSO as vehicle. The reaction mixture was incubated for 1 hour at room temperature followed by the addition of the ADP-Glo′ reagents according to the manufacturer's protocol. The kinase inhibitor staurosporine was used at 1 μM as a reference control. Each data point was collected in quadruplicate of two independent experiments.
(§4) To assess kinase selectivity, compound 30 was screened against a panel of 41 human protein kinases of relevance to Alzheimer's disease and other CNS disorders (Martin, et al. (2013) Aging Res. Rev. 12:289-309). […] The exceptional selectivity of compound 30 to GSK-3β can effectively minimize risk of off-target effects.

[4] = system: SH-SY5Y cells treated with Aβ42 oligomers; assay: Anti-Aβ42 neurotoxicity assay; assay type: cell-based, human
Experimental: as §1
The toxic oligomers of Aβ42 were prepared as described (Liang, et al. (2016) ACS Chem. Neurosci. 7:912-923). Briefly, lyophilized Aβ42 peptide was dissolved in hexafluoroisopropanol, dried under vacuum, and stored at −20° C. Immediately prior to use, the peptide residue was reconstituted in DMEM/F12 media to make a stock solution at 0.1 mM and incubated at 4° C. for 24 hours to form diffusible oligomers. Aβ42 oligomers at a final concentration of 10 μM were assayed for cell viability.
as §2

GSK-3β [5] = target: T1, GSK-3β; assay: GSK-3β kinetics (Lineweaver-Burk), ATP or substrate GS2 competition; assay type: biochemical; settings: 30 at 0 to 5 μM
Experimental: To study GSK-3β kinetics, a reaction solution contained 5 ng/μL kinase, 40 mM Tris, pH 7.5, 20 mM MgCl2, 0.1 mg/mL BSA, 50 μM DTT, and varying concentrations of ATP or substrate GS2 (residues 636-662 of human muscle glycogen synthase) versus test samples. The mixture was incubated for 5, 15, 30, and 60 minutes at room temperature followed by the addition of the ADP-Glo′ reagents according to the manufacturer's protocol. The Lineweaver-Burk representation is derived from the double reciprocal plotting of the enzyme kinetic data.
Under a constant concentration of the substrate GS2 (17 μM), ATP concentrations varied from 2 to 50 μM and 30 concentrations varied from 0 to 5 μM. […] In the second set of experiments under a constant concentration of ATP (10 μM), substrate GS2 concentrations varied from 8 to 66 μM and 30 concentrations varied from 0 to 5 μM. […] The enzyme inhibitory behaviors of 30 are similar to that of the parent compound 1 (Liang, et al. (2016) ACS Chem. Neurosci. 7:912-923) and therefore confirm that the new analogues are indeed substrate-competitive inhibitors of GSK-3β.
Target sequence in this assay (P49841 whole entry): as the sequence (P49841 whole entry) above

[6] = system: panel of 41 human protein kinases; assay: Kinase selectivity profile, other kinases of the panel; assay type: biochemical; settings: 5 μM
Experimental: as §3, §4

GSK-3β [7] = target: T1, GSK-3β; assay: Kinase selectivity profile, GSK-3β; assay type: biochemical
Experimental: as §3, §4
Target sequence in this assay (P49841 whole entry): as above

GSK-3β [8] = target: T1, GSK-3β; settings: background; cited from earlier work
Target sequence in this assay (P49841 whole entry, species assumed): as the sequence (P49841 whole entry) above

Row | Structure (SMILES) | R (percent recovery) [1] | Pe [1] | permeability compared to isoorientin 1 [1] | Permeability classification [1] | GSK-3β-mediated tau hyperphosphorylation at pS396 [2] | IC50 (GSK-3β [3]) | other results
1 | COc1ccc(-c2cc(=O)c3c(OC)c([C@@H]4O[C@H](C(=O)NC(C)C)[C@@H](O)[C@H](O)[C@H]4O)c(OC)cc3o2)cc1OC [Compound 9, (2S,3S,4R,5R,6S)-6-(2-(3,4-Dimethoxyphenyl)-5,7-dimethoxy-4-oxo-4H-chromen-6-yl)-3,4,5-trihydroxy-N-isopropyltetrahydro-2H-pyran-2-carboxamide] | 46% | 1.55 ± 0.06 ×10^−6 cm/s | significant increase in permeability | high (high (Pe > 1.5 × 10^−6 cm/s)) | effectively attenuated tau hyperphosphorylation in a dose-dependent manner; also recorded: attenuate GSK-3β-mediated tau phosphorylation | 5.4 ± 0.1 µM | –
2 | COc1ccc(-c2cc(=O)c3c(OC)c([C@@H]4O[C@H](C(=O)NC5CCCCC5)[C@@H](O)[C@H](O)[C@H]4O)c(OC)cc3o2)cc1OC [Compound 17, (2S,3S,4R,5R,6S)—N-Cyclohexyl-6-(2-(3,4-dimethoxyphenyl)-5,7-dimethoxy-4-oxo-4H-chromen-6-yl)-3,4,5-trihydroxytetrahydro-2H-pyran-2-carboxamide] | 20% | 1.77 ± 0.07 ×10^−6 cm/s | significant increase in permeability | high (high (Pe > 1.5 × 10^−6 cm/s)) | effectively attenuated tau hyperphosphorylation in a dose-dependent manner; also recorded: attenuate GSK-3β-mediated tau phosphorylation | 9 ± 1.3 µM | –
3 | COc1ccc(-c2cc(=O)c3c(OC)c([C@@H]4O[C@H](C(=O)NCc5ccccc5)[C@@H](O)[C@H](O)[C@H]4O)c(OC)cc3o2)cc1OC [Compound 21, (2S,3S,4R,5R,6S)-6-(2-(3,4-Dimethoxyphenyl)-5,7-dimethoxy-4-oxo-4H-chromen-6-yl)-3,4,5-trihydroxy-N-benzyltetrahydro-2H-pyran-2-carboxamide] | 30% | 1.35 ± 0.08 ×10^−6 cm/s | significant increase in permeability | medium (medium (1.0 × 10^−6 cm/s ≤ Pe ≤ 1.5 × 10^−6 cm/s)) | effectively attenuated tau hyperphosphorylation in a dose-dependent manner; also recorded: attenuate GSK-3β-mediated tau phosphorylation | 15.8 ± 1.2 µM | –
4 | COc1ccc(-c2cc(=O)c3c(OC)c([C@@H]4O[C@H](C(=O)N[C@@H](C)C(F)(F)F)[C@@H](O)[C@H](O)[C@H]4O)c(OC)cc3o2)cc1OC [Compound 30, (2S,3S,4R,5R,6S)-6-(2-(3,4-Dimethoxyphenyl)-5,7-dimethoxy-4-oxo-4H-chromen-6-yl)-3,4,5-trihydroxy-N—((S)-1,1,1-trifluoropropan-2-yl)tetrahydro-2H-pyran-2-carboxamide] | 30% | 2.23 ± 0.21 ×10^−6 cm/s | – | high (high (Pe > 1.5 × 10^−6 cm/s)) | effectively attenuated tau hyperphosphorylation in a dose-dependent manner; also recorded: attenuate GSK-3β-mediated tau phosphorylation | < 20 µM and 0.59 µM | inhibition of tau hyperphosphorylation compared to TDZD-8 ([2]; 10 μM, TDZD-8 at the same concentration): better inhibition against tau hyperphosphorylation; cytotoxicity (SH-SY5Y cells): no observable cytotoxicity; inhibition at 5 µM (GSK-3α): 7.5%; protection against Aβ42 neurotoxicity ([4]; 1.25 to 20 μM, 10 μM Aβ42, 72 hours): neuroprotection in a dose-dependent manner; also recorded: alleviates Aβ42 induced neurotoxicity; improvement in effectiveness compared to parent compound ([4]; 30 at 10 μM versus 1 at 200 μM): ~20 fold; EC50 ([4]; Homo sapiens, SH-SY5Y, 1 hour pretreatment, 10 μM Aβ42, 72 hours, read-out: neuroprotective potency EC50): 8.7 µM; effective dose, morphological protection from Aβ42 intoxication ([4]; morphological observations): 10 μM; increase of neuroprotective potency relative to 1 ([4]; vs parent compound 1): 5.4 fold; competition with substrate GS2 (GSK-3β [5]; ATP 10 μM, GS2 8 to 66 μM): competed with the substrate GS2; competition with ATP (GSK-3β [5]; GS2 17 μM, ATP 2 to 50 μM): no competition between ATP and 30; inhibition of 40 out of 41 kinases of the test panel [6]: only marginal or weak inhibition; specificity for GSK-3β versus GSK-3α (GSK-3β [7]; 5 μM): 12.3 fold; inhibition at 5 µM (GSK-3β [7]; read-out: GSK-3β inhibition (decrease of kinase activity)): 92.3%; LiPE (pIC50−CLogP) (GSK-3β [3]): > 4; potency against GSK-3β relative to epimer 31 (GSK-3β [3]; vs 31): about 4 fold; increase of potency against GSK-3β relative to 1 (GSK-3β [3]; vs isoorientin 1): 310 fold
5 | O=C([O-])[O-].[Li+].[Li+] [lithium carbonate] | – | – | – | – | – | – | IC50 (GSK-3β [8]): 2000 µM
